In brackets after ≈: the same amount, converted by molar mass. One block for each compound: values may come before it.
Key:
Assay type in all cases: functional
[1] = system: Aspergillus niger; assay: Antifungal activity against Aspergillus niger NCCS 1196 assessed as inhibition zone at 500 ug/ml by disk diffusion method; conditions: read-out: IZ
[2] = system: Candida albicans; assay: Antifungal activity against Candida albicans NCCS 3471 assessed as inhibition zone at 500 ug/ml by disk diffusion method; conditions: read-out: IZ
[3] = system: Candida albicans; assay: Antifungal activity against Candida albicans ATCC 885653 assessed as inhibition zone at 100 ug/ml incubated for 48 to 72 hrs by agar-diffusion method; conditions: read-out: IZ
[4] = system: Aspergillus fumigatus; assay: Antifungal activity against Aspergillus fumigatus assessed as inhibition zone at 25 ug/ml by disk diffusion method; conditions: read-out: IZ
[5] = system: Aspergillus flavus; assay: Antifungal activity against Aspergillus flavus assessed as inhibition zone at 25 ug/ml by disk diffusion method; conditions: read-out: IZ
[6] = system: Candida albicans; assay: Antifungal activity against Candida albicans assessed as inhibition zone at 25 ug/ml by disk diffusion method; conditions: read-out: IZ
[7] = system: Aspergillus niger; assay: Antifungal activity against Aspergillus niger assessed as inhibition zone at 25 ug/ml by disk diffusion method; conditions: read-out: IZ
[8] = system: Rhizopus arrhizus; assay: Antifungal activity against Rhizopus arrhizus
[9] = system: Aspergillus niger; assay: Antifungal activity against Aspergillus niger
[10] = system: Mucor indicus; assay: Antifungal activity against Mucor indicus
[11] = system: Aspergillus flavus; assay: Antifungal activity against Aspergillus flavus
[12] = system: Candida albicans; assay: Antifungal activity against Candida albicans
[13] = system: Aspergillus niger; assay: Antifungal activity against Aspergillus niger assessed as reduction in fungal cell growth incubated for 48 hrs by broth microdilution method
[14] = system: Candida albicans; assay: Antifungal activity against Candida albicans assessed as reduction in fungal cell growth incubated for 48 hrs by broth microdilution method
[15] = system: Candida albicans; assay: Antifungal activity against Candida albicans assessed as inhibition zone at 125 ug/ml by disk diffusion method; conditions: read-out: IZ
[16] = system: Candida albicans; assay: Antifungal activity against Candida albicans assessed as reduction in fungal cell growth incubated for 24 hrs by broth microdilution method

SMILES: CC(=O)N1N=C(Cn2cc(-c3nn(-c4ccncc4)cc3-c3nnnn3-c3ccc(C(F)(F)F)cc3)c3cc(Cl)ccc32)OC1(C)c1ccccc1 (configuration not stated)
zone of inhibition at 500 µg/mL [1]: 11 to 20 mm
zone of inhibition at 500 µg/mL [2]: 11 to 20 mm

SMILES: COc1ccc(OC)c(C(=O)CSc2nc3ccccc3c3nnnn23)c1
zone of inhibition at 100 µg/mL [3]: 22 mm

SMILES: Cc1ccc(OCc2cn(Cc3ccc(-c4ccccc4-c4nnn[nH]4)cc3)nn2)cc1
zone of inhibition at 25 µg/mL [4]: 11 to 18 mm
zone of inhibition at 25 µg/mL [5]: 11 to 18 mm
zone of inhibition at 25 µg/mL [6]: 11 to 18 mm
zone of inhibition at 25 µg/mL [7]: 11 to 18 mm

MIC [8]: 6.25 to 100 µg/mL (≈ 10.5 to 167 µM)
MIC [9]: 6.25 to 100 µg/mL (≈ 10.5 to 167 µM)
MIC [10]: 6.25 to 100 µg/mL (≈ 10.5 to 167 µM)
MIC [11]: 6.25 to 100 µg/mL (≈ 10.5 to 167 µM)
MIC [12]: 6.25 to 100 µg/mL (≈ 10.5 to 167 µM)
SMILES: O=C(O)c1cn(C2CC2)c2nc(N3CCN(CC(=O)c4nnnn4-c4ccc(Br)cc4)CC3)c(F)cc2c1=O

MIC [13]: 50 to 400 µg/mL (≈ 130 to 1040 µM)
MIC [14]: 50 to 400 µg/mL (≈ 130 to 1040 µM)
SMILES: S=c1[nH]c2c(c3nnnn13)C(c1ccccc1)c1ccc3ccccc3c1O2 (configuration not stated)

SMILES: CC(C)NCCSc1nc2ccccc2c2nnnn12
zone of inhibition at 100 µg/mL [3]: 6 to 22 mm

MIC [13]: 50 to 400 µg/mL (≈ 121 to 967 µM)
MIC [14]: 50 to 400 µg/mL (≈ 121 to 967 µM)
SMILES: COc1ccc(C2c3ccc4ccccc4c3Oc3[nH]c(=S)n4nnnc4c32)cc1 (configuration not stated)

SMILES: c1ccc(OCc2cn(Cc3ccc(-c4ccccc4-c4nnn[nH]4)cc3)nn2)cc1
zone of inhibition at 25 µg/mL [4]: 11 to 18 mm
zone of inhibition at 25 µg/mL [5]: 11 to 18 mm
zone of inhibition at 25 µg/mL [6]: 11 to 18 mm
zone of inhibition at 25 µg/mL [7]: 11 to 18 mm

SMILES: CC(=O)N1N=C(Cn2cc(-c3nn(-c4ccncc4)cc3-c3nnnn3-c3ccc(C(F)(F)F)cc3)c3cc(Cl)ccc32)OC1(C)c1ccc([N+](=O)[O-])cc1 (configuration not stated)
zone of inhibition at 500 µg/mL [1]: 11 to 20 mm
zone of inhibition at 500 µg/mL [2]: 11 to 20 mm

SMILES: CC(=O)N1N=C(Cn2cc(-c3nn(-c4ccncc4)cc3-c3nnnn3-c3ccc(C(F)(F)F)cc3)c3cc(Cl)ccc32)OC1(C)c1ccc(C)cc1 (configuration not stated)
zone of inhibition at 500 µg/mL [1]: 11 to 20 mm
zone of inhibition at 500 µg/mL [2]: 11 to 20 mm

MIC [8]: 6.25 to 100 µg/mL (≈ 11.3 to 181 µM)
MIC [9]: 6.25 to 100 µg/mL (≈ 11.3 to 181 µM)
MIC [10]: 6.25 to 100 µg/mL (≈ 11.3 to 181 µM)
MIC [11]: 6.25 to 100 µg/mL (≈ 11.3 to 181 µM)
MIC [12]: 6.25 to 100 µg/mL (≈ 11.3 to 181 µM)
SMILES: O=C(O)c1cn(C2CC2)c2nc(N3CCN(CC(=O)c4nnnn4-c4ccc(Cl)cc4)CC3)c(F)cc2c1=O

SMILES: Clc1ccc(/N=C/c2cc3cc(-c4nc5ccccc5[nH]4)ccc3n3nnnc23)cc1
zone of inhibition at 125 µg/mL [15]: 7 to 12 mm

SMILES: Clc1ccc(OCc2cn(Cc3ccc(-c4ccccc4-c4nnn[nH]4)cc3)nn2)cc1
zone of inhibition at 25 µg/mL [4]: 11 to 18 mm
zone of inhibition at 25 µg/mL [5]: 11 to 18 mm
zone of inhibition at 25 µg/mL [6]: 11 to 18 mm
zone of inhibition at 25 µg/mL [7]: 11 to 18 mm

SMILES: COc1ccc(C(=O)CSc2nc3ccccc3c3nnnn23)cc1
zone of inhibition at 100 µg/mL [3]: 6 to 22 mm

MIC [13]: 50 to 400 µg/mL (≈ 126 to 1010 µM)
MIC [14]: 50 to 400 µg/mL (≈ 126 to 1010 µM)
SMILES: Cc1ccc(C2c3ccc4ccccc4c3Oc3[nH]c(=S)n4nnnc4c32)cc1 (configuration not stated)

MIC [16]: 62.5 µg/mL (≈ 182 µM)
SMILES: FC(F)(F)c1cc(-c2ccc(Br)cc2)nc2nnnn12

SMILES: Cc1ccccc1OCc1cn(Cc2ccc(-c3ccccc3-c3nnn[nH]3)cc2)nn1
zone of inhibition at 25 µg/mL [4]: 11 to 18 mm
zone of inhibition at 25 µg/mL [5]: 11 to 18 mm
zone of inhibition at 25 µg/mL [6]: 11 to 18 mm
zone of inhibition at 25 µg/mL [7]: 11 to 18 mm

SMILES: C(=N\c1ccccc1)/c1cc2cc(-c3nc4ccccc4[nH]3)ccc2n2nnnc12
zone of inhibition at 125 µg/mL [15]: 7 to 12 mm

MIC [13]: 50 to 400 µg/mL (≈ 125 to 996 µM)
MIC [14]: 50 to 400 µg/mL (≈ 125 to 996 µM)
SMILES: Fc1ccc(C2c3ccc4ccccc4c3Oc3[nH]c(=S)n4nnnc4c32)cc1 (configuration not stated)

MIC [8]: 6.25 to 100 µg/mL (≈ 11.6 to 186 µM)
MIC [9]: 6.25 µg/mL (≈ 11.6 µM)
MIC [10]: 6.25 to 100 µg/mL (≈ 11.6 to 186 µM)
MIC [11]: 6.25 to 100 µg/mL (≈ 11.6 to 186 µM)
MIC [12]: 6.25 to 100 µg/mL (≈ 11.6 to 186 µM)
SMILES: O=C(O)c1cn(C2CC2)c2nc(N3CCN(CC(=O)c4nnnn4-c4ccc(F)cc4)CC3)c(F)cc2c1=O

SMILES: O=C(O)c1ccc(/N=C/c2cc3cc(-c4nc5ccccc5[nH]4)ccc3n3nnnc23)cc1
zone of inhibition at 125 µg/mL [15]: 7 to 12 mm

Source: ChEMBL document CHEMBL4393657, “Tetrazole hybrids and their antifungal activities” (2019)
